{"source": "paper PMC8058733", "about": "“A pain killer without analgesic tolerance designed by co-targeting PSD-95-nNOS interaction and α2-containning GABAARs” (Theranostics, 2021)", "key": {"[1]": {"assay": "Identification of metabolites of ZL006-05 in plasma (UPLC-UV/Q-TOF MS)", "format": "in vivo", "details": "rats", "method": "ZL006-05 was given to rats by intravenous injection (i.v., 6.0 mg/kg) and oral administration (i.g., 90 mg/kg) respectively. Plasma samples were collected at pre-dose and 0.25, 0.5, 2 and 4 h for i.v. and 0.5, 1, 2 and 4 h for i.g after a single dose administration. Pre-dose plasma samples were used as control blank. After vortex and centrifugation, supernatant was removed and dried out by nitrogen blowing instrument at 40 °C and then re-dissolved with 100 μL water/ACN (50/50, v/v). The resulting samples were injected and analyzed by UPLC-UV/Q-TOF MS. Metabolites were separated with ACQUITY UPLC HSS T3 C18 column (2.1 × 100 mm I.D., 1.7 µm I.D.) with column temperature at 45 °C and flow rate at 0.4 mL/min, detected by UV (200-600 nm). Masslynx V4.1 of Waters was used for data acquiring, MetaboLynx XS with Masslynx V4.1 was used for data analysis.\nSupplementary Figure 3. Proposed metabolic pathways of ZL006-05 in rats. […]\nof ZL006-05, including M2-2 (glucuronide conjunction), M3-2 (Mono-oxidation & […]\nparent drug were found in plasma after oral administration of ZL006-05, including M1 (Oxidation by de-H2), M2-1 and M2-2 (glucuronide conjunction), M3-1 and M3-2 (Mono-oxidation & glucuronide conjunction). Based on the chromatogram of UPLC- […]\noral dosing, the proposed metabolic pathways of ZL006-05 in blood were summarized. i.v.: intravenous injection; i.g.: oral administration.\n(1 picture or pasted object on this page, not shown here)"}, "[2]": {"system": "SNL-induced thermal hyperalgesia", "assay": "SNL-induced thermal hyperalgesia, paw withdrawal latency", "format": "in vivo, mice", "details": "mice, ZL006-05 60 mg/kg, i.g., 0-24 h", "method": "Neuropathic pain was induced by segmental spinal nerve ligation (SNL). Animals were anesthetized with isoflurane. After the loss of righting reflex, the animal was fixed in the prone position. The SNL model was prepared as described previously: a median skin incision with about 3-5 cm length in L4-S2 level of the mouse back was made, the muscles next to the vertebrae till the sixth lumbar protruding were separated, the L5/L6 joint protruding on the right side was exposed and excised, and L6 processus transversus was partially split so that the L4-L6 spinal nerves on the right side were exposed. L5 nerve was gently isolated and tightly ligated with 5-0 silk thread. […]\nPaw withdrawal latency (PWL) response to thermal stimulus was assessed through the Hargreaves test. […] To record the PWL in response to thermal stimulus, each animal was measured five times with a 5-min interval, and the mean value was recorded after excluding maximal and minimum values. […]\n(A) Time course of SNL-induced thermal hyperalgesia after treating with ZL006-05 (60 mg/kg, i.g.) in mice. Paw withdrawal latency response to thermal stimulation was detected at 0, 1, 2, 4, 6, 8, 10, 12 and 24 h after drug administration. ( B) Areas under the curve of paw withdrawal latency 0-24 h after treatment calculated from ( A) (F (1,16) = 43.07, ***p < 0.001, two-tailed t-test, n = 9). […]"}, "[3]": {"system": "basic pain threshold under normal conditions", "assay": "Mechanical nociceptive thresholds in normal rats", "format": "in vivo, rat", "details": "ZL006-05 90 mg/kg/d, i.g., × 11 d, 2 h after administration", "method": "For rats, the threshold for 50% paw withdrawal (50% PWT) response to mechanical stimulus was assessed through a dynamic plantar apparatus (Ugo Basile, Italy). The 50% PWT refers to that the probability of paw withdrawal response to repeated mechanical stimulus is 50%. Rats were placed individually in a plastic cage (17 × 15 × 15 cm) with a wire mesh bottom which allowed full access to the paws. Behavioral accommodation was allowed for 15-20 min until cage exploration and major grooming activities ceased. A maximal cut-off of 50g/50s was set to prevent tissue damage. To record the PWT in response to mechanical stimulus, each rat was measured five times with a 5-min interval, and the mean value was recorded after excluding maximal and minimum values. The experimental procedures were performed in a double-blind manner."}}, "data": [{"smiles": "CC1(C)C2CCC1(C)C(OC(=O)c1ccc(NCc3cc(Cl)cc(Cl)c3O)cc1O)C2", "note": "(stereo not drawn) [ZL006-05]", "values": [{"measurement": "Metabolites found in plasma", "setting": "[1]; after intravenous injection: M2-2, M3-2, M4", "value": "Three metabolites except parent drug"}, {"measurement": "Main metabolite in plasma (UPLC-UV)", "setting": "[1]; after iv dosing, 6.0 mg/kg", "value": "parent drug (M0)"}, {"measurement": "Metabolites found in plasma", "setting": "[1]; after oral administration: M1, M2-1, M2-2, M3-1, M3-2", "value": "five metabolites"}, {"measurement": "Main metabolite in plasma (UPLC-UV)", "setting": "[1]; after oral dosing, 90 mg/kg", "value": "parent drug (M0) and glucuronide conjunction (M2-2)"}, {"measurement": "Effect on SNL-induced thermal hyperalgesia", "setting": "[2]", "value": "reduced SNL-induced mechanical hyperalgesia and thermal pain"}, {"measurement": "Basic mechanical nociceptive threshold", "setting": "[3]", "value": "did not change the basic threshold"}]}]}
